ChEMBL document CHEMBL1697731, “Cheminformatics analysis of assertions mined from literature that describe drug-induced liver injury in different species” (Chem Res Toxicol, 2010)

Legend:
Hepatotoxicity [1] = assay: Literature-mined compound from Fourches et al multi-species drug-induced liver injury (DILI) dataset, effect in rodents; conditions: rodentia
Hepatotoxicity [2] = assay: Literature-mined compound from Fourches et al multi-species drug-induced liver injury (DILI) dataset, effect in humans; conditions: human
Hepatotoxicity [3] = assay: Literature-mined compound from Fourches et al multi-species drug-induced liver injury (DILI) dataset, effect in non-rodents

Compound | Hepatotoxicity (Hepatotoxicity [1]) | Hepatotoxicity (Hepatotoxicity [2]) | Hepatotoxicity (Hepatotoxicity [3]) | Hepatotoxicity (Hepatotoxicity [1]; Liver) | Hepatotoxicity (Hepatotoxicity [2]; Liver) | Hepatotoxicity (Hepatotoxicity [3]; Liver)
CC1=C(/C=C/C(C)=C/C=C/C(C)=C/C(=O)O)C(C)(C)CCC1 [TRETINOIN] | drug-induced liver injury reported | drug-induced liver injury reported | no drug-induced liver injury reported | – | – | –
O=C(O)CCc1nc(-c2ccccc2)c(-c2ccccc2)o1 [OXAPROZIN] | no drug-induced liver injury reported | drug-induced liver injury reported | no drug-induced liver injury reported | – | – | –
Cc1cc2c(C(C)C)c(O)c(O)c(C=O)c2c(O)c1-c1c(C)cc2c(C(C)C)c(O)c(O)c(C=O)c2c1O [GOSSYPOL] | drug-induced liver injury reported | drug-induced liver injury reported | no drug-induced liver injury reported | – | – | –
CCCCC(CC)CN1CN(CC(CC)CCCC)CC(C)(N)C1 (stereo not given) [HEXETIDINE] | drug-induced liver injury reported | no drug-induced liver injury reported | no drug-induced liver injury reported | – | – | –
CCN[C@@H](C)Cc1cccc(C(F)(F)F)c1 [DEXFENFLURAMINE] | drug-induced liver injury reported | drug-induced liver injury reported | no drug-induced liver injury reported | – | – | –
Cc1cccc(C(C)c2cnc[nH]2)c1C (stereo not given) [MEDETOMIDINE] | – | – | – | no drug-induced liver injury reported | drug-induced liver injury reported | drug-induced liver injury reported
CN(C)CCC=C1c2ccccc2COc2ccccc21 [DOXEPIN] | no drug-induced liver injury reported | drug-induced liver injury reported | no drug-induced liver injury reported | – | – | –
NC[C@@H]1O[C@H](O[C@H]2[C@@H](O)[C@H](O[C@@H]3[C@@H](O)[C@H](N)C[C@H](N)[C@H]3O[C@H]3O[C@H](CO)[C@@H](O)[C@H](O)[C@H]3N)O[C@@H]2CO)[C@H](N)[C@@H](O)[C@@H]1O [PAROMOMYCIN] | drug-induced liver injury reported | no drug-induced liver injury reported | no drug-induced liver injury reported | – | – | –
O=C1NC(=O)C(c2ccccc2)(c2ccccc2)N1 [PHENYTOIN] | – | – | – | drug-induced liver injury reported | drug-induced liver injury reported | drug-induced liver injury reported
N=C(N)NC(=O)c1nc(Cl)c(N)nc1N [AMILORIDE] | drug-induced liver injury reported | drug-induced liver injury reported | no drug-induced liver injury reported | – | – | –
CN(C)CCOc1ccc(/C(=C(/CCCl)c2ccccc2)c2ccccc2)cc1 [TOREMIFENE] | drug-induced liver injury reported | drug-induced liver injury reported | no drug-induced liver injury reported | – | – | –
CCCCC1(CC)C(=O)NC(=O)NC1=O [BUTETHAL] | drug-induced liver injury reported | no drug-induced liver injury reported | no drug-induced liver injury reported | – | – | –
CCCC(=O)Nc1ncnc2c1ncn2[C@@H]1O[C@@H]2COP(=O)(O)O[C@H]2[C@H]1OC(=O)CCC [BUCLADESINE] | drug-induced liver injury reported | drug-induced liver injury reported | drug-induced liver injury reported | – | – | –
COc1cc2c(cc1OC)C1CC(=O)C(CC(C)C)CN1CC2 (stereo not given) [TETRABENAZINE] | no drug-induced liver injury reported | drug-induced liver injury reported | no drug-induced liver injury reported | – | – | –
CC[C@H](CC[C@@H](C)[C@H]1CC[C@H]2[C@@H]3CC=C4C[C@@H](O)CC[C@]4(C)[C@H]3CC[C@]12C)C(C)C [BETA-SITOSTEROL] | drug-induced liver injury reported | drug-induced liver injury reported | no drug-induced liver injury reported | – | – | –
CCCC1(CCC)CCC2(CCN(CCCN(CC)CC)C2)CC1 [ATIPRIMOD] | no drug-induced liver injury reported | drug-induced liver injury reported | no drug-induced liver injury reported | – | – | –
CNC1=Nc2ccc(Cl)cc2C(c2ccccc2)=[N+]([O-])C1 [CHLORDIAZEPOXIDE] | drug-induced liver injury reported | no drug-induced liver injury reported | no drug-induced liver injury reported | – | – | –
C=C1/C(=C\C=C2/CCC[C@]3(C)[C@@H]([C@H](C)CCCC(C)C)CC[C@@H]23)C[C@@H](O)C[C@@H]1O [ALFACALCIDOL] | no drug-induced liver injury reported | drug-induced liver injury reported | no drug-induced liver injury reported | – | – | –

Compound | Hepatotoxicity (Hepatotoxicity [1]) | Hepatotoxicity (Hepatotoxicity [2]) | Hepatotoxicity (Hepatotoxicity [3]) | Hepatotoxicity (Hepatotoxicity [1]; Liver) | Hepatotoxicity (Hepatotoxicity [2]; Liver) | Hepatotoxicity (Hepatotoxicity [3]; Liver)
CCc1oc2ccccc2c1C(=O)c1cc(I)c(O)c(I)c1 [BENZIODARONE] | drug-induced liver injury reported | no drug-induced liver injury reported | no drug-induced liver injury reported | – | – | –
CC(=O)Oc1ccccc1C(=O)O.NCCCCC(N)C(=O)O [ASPIRIN DL-LYSINE] | drug-induced liver injury reported | drug-induced liver injury reported | no drug-induced liver injury reported | – | – | –
CNC(=O)Oc1ccc2c(c1)[C@]1(C)CCN(C)[C@@H]1N2C [PHYSOSTIGMINE] | drug-induced liver injury reported | no drug-induced liver injury reported | no drug-induced liver injury reported | – | – | –
Cc1cn([C@H]2C[C@H](N=[N+]=[N-])[C@@H](CO)O2)c(=O)[nH]c1=O [ZIDOVUDINE] | drug-induced liver injury reported | drug-induced liver injury reported | no drug-induced liver injury reported | – | – | –
CCC(=O)O[C@H]1[C@H](O[C@@H]2[C@@H](C)[C@H](O[C@H]3C[C@@](C)(OC)[C@@H](O)[C@H](C)O3)[C@@H](C)C(=O)O[C@H](CC)[C@@](C)(O)[C@H](O)[C@@H](C)C(=O)[C@H](C)C[C@@]2(C)O)O[C@H](C)C[C@@H]1N(C)C.CCCCCCCCCCCCOS(=O)(=O)O [ERYTHROMYCIN ESTOLATE] | drug-induced liver injury reported | drug-induced liver injury reported | no drug-induced liver injury reported | – | – | –
CCCc1nn(C)c2c(=O)[nH]c(-c3cc(S(=O)(=O)N4CCN(C)CC4)ccc3OCC)nc12 | no drug-induced liver injury reported | drug-induced liver injury reported | no drug-induced liver injury reported | – | – | –
O=C(NC(Cc1cc(=O)[nH]c2ccccc12)C(=O)O)c1ccc(Cl)cc1 (stereo not given) [REBAMIPIDE] | drug-induced liver injury reported | no drug-induced liver injury reported | no drug-induced liver injury reported | – | – | –
Cc1c(C(=O)NN2CCCCC2)nn(-c2ccc(Cl)cc2Cl)c1-c1ccc(Cl)cc1 [RIMONABANT] | drug-induced liver injury reported | no drug-induced liver injury reported | no drug-induced liver injury reported | – | – | –
CCCCNC(=O)NS(=O)(=O)c1ccc(N)cc1 [CARBUTAMIDE] | drug-induced liver injury reported | no drug-induced liver injury reported | no drug-induced liver injury reported | – | – | –
COc1ccc(O)cc1 [MEQUINOL] | drug-induced liver injury reported | no drug-induced liver injury reported | no drug-induced liver injury reported | – | – | –
CC(=O)S[C@@H]1CC2=CC(=O)CC[C@]2(C)[C@H]2CC[C@@]3(C)[C@@H](CC[C@@]34CCC(=O)O4)[C@H]12 [SPIRONOLACTONE] | drug-induced liver injury reported | drug-induced liver injury reported | no drug-induced liver injury reported | – | – | –
CO[C@H]1C[C@@H]2CC[C@@H](C)[C@@](O)(O2)C(=O)C(=O)N2CCCC[C@H]2C(=O)O[C@H]([C@H](C)C[C@@H]2CC[C@@H](O)[C@H](OC)C2)CC(=O)[C@H](C)/C=C(\C)[C@@H](O)[C@@H](OC)C(=O)[C@H](C)C[C@H](C)/C=C/C=C/C=C/1C [SIROLIMUS] | drug-induced liver injury reported | drug-induced liver injury reported | no drug-induced liver injury reported | – | – | –
Nc1ccc(C(=O)O)c(O)c1 [AMINOSALICYLIC ACID] | no drug-induced liver injury reported | drug-induced liver injury reported | no drug-induced liver injury reported | – | – | –
c1ccc(-c2ccc(C(c3ccccc3)n3ccnc3)cc2)cc1 (stereo not given) [BIFONAZOLE] | drug-induced liver injury reported | no drug-induced liver injury reported | no drug-induced liver injury reported | – | – | –
CCCCc1nc(Cl)c(CO)n1Cc1ccc(-c2ccccc2-c2nn[nH]n2)cc1 [LOSARTAN] | drug-induced liver injury reported | drug-induced liver injury reported | no drug-induced liver injury reported | – | – | –
[H]/N=C(/N)N[C@H]1[C@H](O)[C@@H](O)[C@H](O[C@@H]2O[C@@H](C)[C@](O)(C=O)[C@H]2O[C@@H]2O[C@@H](CO)[C@H](O)[C@@H](O)[C@@H]2NC)[C@@H](N/C(N)=N\[H])[C@@H]1O [STREPTOMYCIN] | – | – | – | drug-induced liver injury reported | drug-induced liver injury reported | drug-induced liver injury reported
CC(=O)N1CCN(c2ccc(OCC3COC(Cn4ccnc4)(c4ccc(Cl)cc4Cl)O3)cc2)CC1 (stereo not given) [KETOCONAZOLE] | drug-induced liver injury reported | drug-induced liver injury reported | drug-induced liver injury reported | – | – | –
